Assay results reported in patent publication US20170145472A1, “METHOD OF DETECTING HELICASE ACTIVITY” (University of Macau, priority 2015, published 2017).

Columns and labels:
[1] = system: F21T G-quadruplex DNA; assay: FRET melting assay, G-quadruplex; assay type: binding; settings: F21T 0.2 μM, complex 9 5 μM
Method: (§1) The ability of complex 9 to stabilize G-quadruplex DNA was investigated using a fluorescence resonance energy transfer (FRET) melting assay. The labeled G-quadruplex-forming oligonucleotide F21T, consisting of a sequence 5′-FAM-(SEQ ID NO: 5)-TAMRA-3′ (donor fluorophore FAM: 6-carboxyfluorescein; acceptor fluorophore TAMRA: 6-carboxytetramethylrhodamine), was diluted to 200 nM in a potassium cacodylate buffer (100 mM KCl, pH 7.0), and then heated from room temperature to 95° C. in the presence of the indicated concentrations of complex 9. The labeled duplex-forming oligonucleotide F10T, consisting of a sequence 5′-FAM-[…]-HEG-(SEQ ID NO: 6)-3′ (HEG linker: [(—CH2—CH2—O—)6]), was treated in the same manner, except that the buffer was changed to 10 mM lithium cacodylate (pH 7.4). Fluorescence readings were taken at intervals of 0.5° C. in a range of 25 to 95° C.

[2] = system: Pu27 G-quadruplex DNA; assay: G-quadruplex fluorescent intercalator displacement (G4-FID) assay; assay type: binding
Method: The FID assay was performed as described. The Pu27 G-quadruplex DNA (0.25 μM) in Tris-HCl buffer (20 mM Tris, 100 mM KCl, pH 7.0) were annealed by heating at a temperature of 72-98° C., in particular 95° C., for at least 10 min. Indicated concentration of thiazole orange (0.5 μM for Pu27 G-quadruplex DNA and 0.5 μM for ds17) was added and the mixture was incubated for at least 30 minutes, in particular 1 hour. Emission measurement was taken after addition of each indicated concentration of complex 9 followed by an equilibration time for 5 minutes. The fluorescence area was converted into percentage of displacement (PD) by using the following equation. PD=100−[(FA/FA0)×100] (FA0=fluorescence area of DNA-TO complex in the absence of complex 9; FA=fluorescence area in the presence of complex 9).

[3] = Photophysical measurement; assay type: physicochemical
Method: Emission spectra and lifetime measurements for complexes were performed on a PTI TimeMaster C720 Spectrometer (Nitrogen laser: pulse output 337 nm) fitted with a 380 nm filter. Error limits were estimated: λ (±1 nm); τ (±10%); φ (±10%). All solvents used for the lifetime measurements were degassed using three cycles of freeze-vac-thaw.
Luminescence quantum yields were determined using the method of Demas and Crosby [Ru(bpy)3][PF6]2 in degassed acetonitrile as a standard reference solution (Φr=0.062) and calculated according to the following equation:
Φs=Φr(Br/Bs)(ns/nr)^2(Ds/Dr) • where the subscripts s and r refer to sample and reference standard solution respectively, n is the refractive index of the solvents, D is the integrated intensity, and Φ is the luminescence quantum yield. The quantity B was calculated by B=1−10^−AL, where A is the absorbance at the excitation wavelength and L is the optical path length.

[4] = target: T1, HCV NS3 helicase (Hepatitis C virus genotype 1a, UniProt P27958); assay: G-quadruplex-based luminescent HCV NS3 helicase activity assay; assay type: biochemical
T1 construct: upon the addition of 0.8 μM HCV NS3 helicase; purchased Prospec Inc. (Ness-Ziona, Israel)
T1 sequence (P27958 1027-1657): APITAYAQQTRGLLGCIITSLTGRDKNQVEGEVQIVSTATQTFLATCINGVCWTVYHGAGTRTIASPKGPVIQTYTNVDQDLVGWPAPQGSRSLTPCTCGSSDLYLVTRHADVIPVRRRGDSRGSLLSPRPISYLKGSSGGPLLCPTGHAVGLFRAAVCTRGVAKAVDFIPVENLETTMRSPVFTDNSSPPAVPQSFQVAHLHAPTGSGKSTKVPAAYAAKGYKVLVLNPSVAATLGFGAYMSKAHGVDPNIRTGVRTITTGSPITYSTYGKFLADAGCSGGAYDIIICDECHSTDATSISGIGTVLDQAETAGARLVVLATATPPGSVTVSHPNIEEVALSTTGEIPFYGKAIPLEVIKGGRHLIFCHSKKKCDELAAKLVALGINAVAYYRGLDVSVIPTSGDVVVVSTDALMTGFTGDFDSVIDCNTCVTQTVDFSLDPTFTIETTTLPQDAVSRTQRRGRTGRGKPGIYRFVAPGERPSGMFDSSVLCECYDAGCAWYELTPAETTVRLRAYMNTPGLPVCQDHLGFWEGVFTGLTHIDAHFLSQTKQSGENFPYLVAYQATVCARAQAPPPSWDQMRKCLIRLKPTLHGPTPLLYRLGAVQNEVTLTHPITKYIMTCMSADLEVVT
Method: The random-coil oligonucleotides ON1 (100 μM) and ON2 (100 μM) were incubated in Tris buffer (20 mM, pH 7.0). The solution was heated at a temperature of 72-98° C., in particular 95° C., for at least 30 seconds in particular 10 min, cooled to room temperature at 0.1° C./s, and further incubated at room temperature for 1 hour to ensure formation of the duplex substrate. The annealed product was stored at −20° C. before use. For assaying enzyme activity, 50 μL of Tris buffered solution (5 mM Tris-HCl, 5 mM NaCl, 1 mM MgCl2, 1 mM ATP, 0.1 mM DTT, pH 7.9) with the indicated concentrations of helicase or S1, Endo, DpnI, ExoI, EcoRI, RNase, DNase, and SSB were added to a solution containing the duplex substrate (0.25 μM). The mixture was heated to 37° C. for at least 30 minutes, e.g. 2 hours, to allow the indicated enzymes-catalyzed unwinding of the duplex substrate to take place. The duplex unwinding reaction was quenched by the addition of EDTA at a final concentration of 20 mM, and the mixture was subsequently diluted using Tris buffer (20 mM Tris, 20 mM KCl, 150 mM NH4Ac, pH 7.2) to a final volume of 500 μL. […] Emission spectra were recorded in the 500-720 nm range using an excitation wavelength of 360 nm.
For the detection of helicase activity in cell extract, 50 μL of Tris buffered solution (5 mM Tris-HCl, 5 mM NaCl, 1 mM MgCl2, 1 mM ATP, 0.1 mM DTT, pH 7.9) and the indicated concentrations of helicase were added to a solution containing the duplex substrate (0.25 μM) and cell extract. The mixture was heated to 37° C. for at least 30 minutes, e.g. 2 hours, to allow the helicase-catalyzed unwinding of the duplex substrate to take place. The duplex unwinding reaction was quenched by the addition of EDTA at a final concentration of 20 mM, and the mixture was subsequently diluted using Tris buffer (20 mM Tris, 20 mM KCl, 150 mM NH4Ac, pH 7.2) to a final volume of 500 μL. Finally, 1 μM of complex 9 was added to the mixture. Emission spectra were recorded in the 500-720 nm range using an excitation wavelength of 360 nm.

[5] = system: F10T dsDNA; assay: FRET melting assay, duplex; assay type: binding; settings: F10T 0.2 μM, complex 9 5 μM
Method: as §1

[6] = system: PS2.M G-quadruplex DNA; assay: Luminescence response of Ir(III) complexes towards different forms of DNA; assay type: binding; settings: complex 1 μM, DNA 5 μM
From the text: M G-quadruplex DNA (G4) over dsDNA (ds17) and ssDNA (CCRS-DEL), in particular IG4/IdsDNA refers to the ratio of the luminescent response of PS2. M G-quadruplex DNA over dsDNA (ds17); and IG4/IssDNA refers to the ratio of the luminescent response of PS2. M G-quadruplex DNA over ssDNA(CCR5-DEL).
M G-quadruplex DNA over dsDNA (ds17) and ssDNA (CCRS-DEL), in particular IG4/IdsDNA refers to the ratio of the luminescent response of PS2. M G-quadruplex DNA over dsDNA (ds17); and IG4/IssDNA refers to the ratio of the luminescent response of PS2. M G-quadruplex DNA over ssDNA(CCR5-DEL).
The G-quadruplex DNA-forming sequence (PS2. M) was annealed in Tris-HCl buffer (20 mM Tris, 100 mM KCl, pH 7.0) and were stored at −20° C. or less than −20° C. before use. Complex 1-17 (1 μM) was added to 5 μM of ssDNA, dsDNA or PS2. M G-quadruplex DNA in Tris-HCl buffer (20 mM Tris, pH 7.0).

[7] = target: T2, helicase (Hepatitis C virus genotype 1a, UniProt P27958); assay: Luminescence response of complexes towards helicase alone
T2 construct: upon the addition of 0.8 μM HCV NS3 helicase; purchased Prospec Inc. (Ness-Ziona, Israel)
T2 sequence (P27958 1027-1657): as above
From the text: M G-quadruplex DNA over helicase, IG4/Ihelicase refers to the ratio of the lunminscent response of PS2. M G-quadruplex DNA over helicase.

F[P-](F)(F)(F)(F)F.[Ir+3].[c-]1ccccc1-c1ccc2ccccc2n1.[c-]1ccccc1-c1ccc2ccccc2n1.c1cnc2c(c1)ccc1cccnc12 [Complex 9]
increase of melting temperature (ΔTm) of F21T G-quadruplex [1]: about 13 °C
G4DC50, half-maximal concentration of compound required to displace 50% TO from DNA ([2]; Pu27 G-quadruplex DNA 0.25 μM, thiazole orange 0.5 μM, Tris-HCl buffer): ca. 5 μM
displacement of thiazole orange from G-quadruplex DNA compared with duplex DNA ([2]; Pu27 G-quadruplex vs ds17 duplex): higher efficacy than from duplex DNA
Lifetime [3]: 8.13 μs
λem [3]: 570 nm
Quantum yield ([3]; reference [Ru(bpy)3][PF6]2 in degassed acetonitrile): 0.12
luminescence of complex 9 upon incubation with helicase and the ON1-ON2 duplex substrate ([4]; ON1-ON2 duplex substrate, K+): significantly enhanced
luminescence of complex 9 in response to helicase for the mutant DNA sequences ([4]; ON1m/ON2 duplex mutant 0.25 μM, helicase 0.9 μM, complex 9 1 μM): slight decrease
enhancement in luminescence of the system ([4]; helicase concentration 0.9 μM): ca. 4.5 fold
luminescence intensity of the system with increasing helicase in cell extract ([4]; reaction system containing 0.5% (v/v) cell extract): gradual increase in luminescence intensity
detection limit of the assay for helicase ([4]; signal-to-noise ratio (S/N) of 3): 0.09 µM
change in the melting temperature of F10T dsDNA [5]: 4 °C
luminescence response in the presence of the PS2.M G-quadruplex [6]: significantly enhanced luminescence response
change in luminescence intensity of the complex 9+G-quadruplex ensemble upon addition of helicase ([7]; 0.8 μM HCV NS3 helicase): no significant change
luminescence enhancement in the presence of helicase only ([7]; helicase alone, no DNA): no luminescence enhancement in the presence of helicase
